What all share (test): biochemical
Common to all, as to parameters: KINOMEscan competition binding, DNA-tagged kinase against immobilised ligand, qPCR read-out
Holding throughout (details): read-out: Percent Control
(In qPCR the cycle at which signal appears reflects the starting amount.)

The target of assay [1] is EPHB2 (Homo sapiens, UniProt P29323).
In assay [2] the target is T1, TYK2(JH2domain-pseudokinase) (Homo sapiens, UniProt P29597).
T1 construct: JH2 domain pseudokinase

In assay [3] the target is MAP3K5 (Homo sapiens, UniProt Q99683).
In assay [4] the target is T2, RSK2(Kin.Dom.2-C-terminal) (Homo sapiens, UniProt P51812).
T2 construct: gene RPS6KA3; Kin.Dom.2 C-terminal

For assay [5], the target named is AURKB (Homo sapiens, UniProt Q96GD4).
In assay [6] the target is T3, ADCK4 (Homo sapiens, UniProt Q96D53).
T3 construct: gene COQ8B

For assay [7], the target named is MAP3K7 (Homo sapiens, UniProt O43318).
Assay [8] has as its target PIM1 (Homo sapiens, UniProt P11309).
In assay [9] the target is CLK4 (Homo sapiens, UniProt Q9HAZ1).
The target in assay [10] is MARK4 (Homo sapiens, UniProt Q96L34).
Assay [11] has as its target PRKG1 (Homo sapiens, UniProt Q13976).
Assay [12] deals with PRKCE (Homo sapiens, UniProt Q02156).
Assay [13] addresses PRKAA2 (Homo sapiens, UniProt P54646).
Assay [14] addresses SRPK2 (Homo sapiens, UniProt P78362).
Assay [15] concerns the target TSSK3 (Homo sapiens, UniProt Q96PN8).
The target in assay [16] is STK16 (Homo sapiens, UniProt O75716).
Assay [17] addresses CDC42BPA (Homo sapiens, UniProt Q5VT25).
The target of assay [18] is STK38L (Homo sapiens, UniProt Q9Y2H1).
Assay [19] deals with BTK (Homo sapiens, UniProt Q06187).
The target in assay [20] is KDR (Homo sapiens, UniProt P35968).
Sequence of KDR (P35968 whole entry): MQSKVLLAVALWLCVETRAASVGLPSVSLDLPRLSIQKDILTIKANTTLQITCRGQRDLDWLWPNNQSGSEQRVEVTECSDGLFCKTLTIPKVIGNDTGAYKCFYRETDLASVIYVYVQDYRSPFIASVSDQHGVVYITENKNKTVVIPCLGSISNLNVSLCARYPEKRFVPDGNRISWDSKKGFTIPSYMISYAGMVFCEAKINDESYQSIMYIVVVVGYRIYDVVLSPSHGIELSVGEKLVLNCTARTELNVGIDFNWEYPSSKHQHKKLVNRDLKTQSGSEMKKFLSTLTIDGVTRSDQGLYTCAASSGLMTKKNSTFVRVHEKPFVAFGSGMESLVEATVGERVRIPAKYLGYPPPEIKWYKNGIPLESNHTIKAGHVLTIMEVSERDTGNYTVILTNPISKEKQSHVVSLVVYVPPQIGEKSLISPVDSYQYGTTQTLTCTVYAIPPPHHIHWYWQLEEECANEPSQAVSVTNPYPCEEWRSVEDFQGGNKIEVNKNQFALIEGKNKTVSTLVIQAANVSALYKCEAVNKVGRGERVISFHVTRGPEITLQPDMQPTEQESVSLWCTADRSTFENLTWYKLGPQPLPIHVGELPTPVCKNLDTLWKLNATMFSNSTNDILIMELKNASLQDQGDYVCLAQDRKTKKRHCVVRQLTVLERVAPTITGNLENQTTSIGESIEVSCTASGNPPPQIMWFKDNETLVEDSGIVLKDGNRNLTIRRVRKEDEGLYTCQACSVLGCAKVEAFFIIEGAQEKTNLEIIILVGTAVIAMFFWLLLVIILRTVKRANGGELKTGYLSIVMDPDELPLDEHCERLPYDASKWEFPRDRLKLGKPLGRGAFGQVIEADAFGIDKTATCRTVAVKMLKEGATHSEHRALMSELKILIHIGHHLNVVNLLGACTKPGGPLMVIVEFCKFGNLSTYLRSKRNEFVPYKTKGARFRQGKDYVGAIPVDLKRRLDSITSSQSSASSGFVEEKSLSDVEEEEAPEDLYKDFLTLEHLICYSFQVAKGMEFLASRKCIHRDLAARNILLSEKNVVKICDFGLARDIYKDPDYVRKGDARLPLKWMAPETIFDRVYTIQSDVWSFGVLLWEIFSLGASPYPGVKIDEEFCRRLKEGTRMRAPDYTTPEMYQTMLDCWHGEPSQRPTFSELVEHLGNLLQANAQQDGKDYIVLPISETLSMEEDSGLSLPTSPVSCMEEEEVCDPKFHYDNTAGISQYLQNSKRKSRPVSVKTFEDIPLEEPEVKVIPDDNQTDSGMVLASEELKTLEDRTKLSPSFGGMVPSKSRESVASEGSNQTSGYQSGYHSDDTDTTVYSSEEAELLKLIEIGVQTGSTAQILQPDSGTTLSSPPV

Sequence of PIM1 (P11309 whole entry): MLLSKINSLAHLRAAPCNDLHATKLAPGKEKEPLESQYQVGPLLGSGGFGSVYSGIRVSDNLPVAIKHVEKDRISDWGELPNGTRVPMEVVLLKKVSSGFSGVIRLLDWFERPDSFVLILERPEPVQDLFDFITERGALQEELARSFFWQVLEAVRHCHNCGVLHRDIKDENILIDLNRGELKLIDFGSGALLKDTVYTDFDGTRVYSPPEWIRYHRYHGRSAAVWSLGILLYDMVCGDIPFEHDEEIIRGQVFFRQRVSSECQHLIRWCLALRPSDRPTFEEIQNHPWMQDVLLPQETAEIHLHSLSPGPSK
Sequence of BTK (Q06187 whole entry): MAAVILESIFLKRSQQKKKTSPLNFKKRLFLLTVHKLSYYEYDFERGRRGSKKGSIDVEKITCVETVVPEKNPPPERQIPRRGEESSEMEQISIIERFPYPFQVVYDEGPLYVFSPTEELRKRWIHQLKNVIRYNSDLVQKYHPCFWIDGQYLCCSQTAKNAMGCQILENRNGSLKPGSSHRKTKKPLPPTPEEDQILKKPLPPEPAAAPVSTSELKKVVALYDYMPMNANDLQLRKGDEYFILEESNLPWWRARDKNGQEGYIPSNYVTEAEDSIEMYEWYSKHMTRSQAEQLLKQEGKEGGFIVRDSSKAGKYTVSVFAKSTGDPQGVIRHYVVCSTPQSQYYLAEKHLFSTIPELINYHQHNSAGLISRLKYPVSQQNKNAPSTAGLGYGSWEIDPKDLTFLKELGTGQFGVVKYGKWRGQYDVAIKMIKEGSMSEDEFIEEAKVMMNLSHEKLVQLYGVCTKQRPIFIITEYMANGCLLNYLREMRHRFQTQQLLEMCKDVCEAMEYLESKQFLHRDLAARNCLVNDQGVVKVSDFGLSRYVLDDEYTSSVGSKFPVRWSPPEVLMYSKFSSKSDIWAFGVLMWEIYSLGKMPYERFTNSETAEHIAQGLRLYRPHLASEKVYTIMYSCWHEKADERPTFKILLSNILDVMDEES
Sequence of PRKG1 (Q13976 whole entry): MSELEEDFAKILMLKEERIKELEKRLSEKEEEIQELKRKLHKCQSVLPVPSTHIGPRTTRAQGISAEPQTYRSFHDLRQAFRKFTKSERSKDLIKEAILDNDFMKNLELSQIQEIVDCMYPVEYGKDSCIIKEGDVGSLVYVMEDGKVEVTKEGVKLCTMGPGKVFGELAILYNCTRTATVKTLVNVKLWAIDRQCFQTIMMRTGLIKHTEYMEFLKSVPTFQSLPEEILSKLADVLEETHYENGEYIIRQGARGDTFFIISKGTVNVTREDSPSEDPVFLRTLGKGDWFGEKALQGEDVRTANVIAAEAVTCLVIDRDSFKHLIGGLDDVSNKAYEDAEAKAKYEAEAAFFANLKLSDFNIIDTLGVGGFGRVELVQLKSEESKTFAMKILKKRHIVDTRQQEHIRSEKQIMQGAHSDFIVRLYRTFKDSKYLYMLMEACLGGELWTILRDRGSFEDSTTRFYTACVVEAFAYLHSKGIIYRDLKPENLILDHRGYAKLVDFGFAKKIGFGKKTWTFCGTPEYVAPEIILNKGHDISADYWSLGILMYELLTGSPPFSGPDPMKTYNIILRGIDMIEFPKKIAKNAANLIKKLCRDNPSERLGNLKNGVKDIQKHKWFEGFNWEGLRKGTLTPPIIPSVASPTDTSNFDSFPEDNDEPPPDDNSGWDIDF
Sequence of MAP3K5 (Q99683 whole entry): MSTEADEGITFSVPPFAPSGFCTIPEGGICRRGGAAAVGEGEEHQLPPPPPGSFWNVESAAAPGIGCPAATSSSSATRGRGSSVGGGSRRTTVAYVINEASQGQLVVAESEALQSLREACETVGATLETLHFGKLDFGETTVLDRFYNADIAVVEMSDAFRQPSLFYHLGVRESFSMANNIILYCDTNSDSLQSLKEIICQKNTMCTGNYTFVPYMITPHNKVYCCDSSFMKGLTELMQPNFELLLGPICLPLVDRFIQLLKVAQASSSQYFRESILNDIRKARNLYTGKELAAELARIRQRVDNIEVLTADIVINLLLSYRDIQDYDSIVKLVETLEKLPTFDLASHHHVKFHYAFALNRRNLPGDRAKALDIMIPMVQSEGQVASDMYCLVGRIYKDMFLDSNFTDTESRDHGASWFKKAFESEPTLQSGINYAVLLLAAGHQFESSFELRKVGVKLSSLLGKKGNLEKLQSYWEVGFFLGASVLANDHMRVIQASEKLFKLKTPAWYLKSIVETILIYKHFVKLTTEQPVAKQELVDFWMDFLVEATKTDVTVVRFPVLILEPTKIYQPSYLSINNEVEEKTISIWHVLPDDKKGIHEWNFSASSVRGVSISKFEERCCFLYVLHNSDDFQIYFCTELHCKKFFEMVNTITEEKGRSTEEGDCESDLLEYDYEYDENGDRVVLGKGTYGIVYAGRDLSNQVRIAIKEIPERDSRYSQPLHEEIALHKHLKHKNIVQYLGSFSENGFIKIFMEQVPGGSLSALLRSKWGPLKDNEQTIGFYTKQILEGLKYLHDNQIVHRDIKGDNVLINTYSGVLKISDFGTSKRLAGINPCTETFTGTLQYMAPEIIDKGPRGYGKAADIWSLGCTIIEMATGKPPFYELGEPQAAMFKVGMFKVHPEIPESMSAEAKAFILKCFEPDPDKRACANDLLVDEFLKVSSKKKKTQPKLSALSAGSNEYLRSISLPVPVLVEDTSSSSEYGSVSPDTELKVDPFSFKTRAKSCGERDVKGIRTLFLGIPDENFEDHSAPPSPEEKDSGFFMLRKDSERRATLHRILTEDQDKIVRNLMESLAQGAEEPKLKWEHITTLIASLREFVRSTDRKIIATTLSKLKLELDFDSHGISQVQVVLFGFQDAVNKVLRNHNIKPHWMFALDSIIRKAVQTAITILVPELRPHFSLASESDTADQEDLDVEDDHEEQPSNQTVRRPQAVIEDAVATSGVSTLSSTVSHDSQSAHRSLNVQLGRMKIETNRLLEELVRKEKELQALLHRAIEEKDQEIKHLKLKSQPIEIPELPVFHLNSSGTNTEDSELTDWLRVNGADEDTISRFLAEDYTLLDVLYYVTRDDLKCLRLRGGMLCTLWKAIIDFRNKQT
Sequence of SRPK2 (P78362 whole entry): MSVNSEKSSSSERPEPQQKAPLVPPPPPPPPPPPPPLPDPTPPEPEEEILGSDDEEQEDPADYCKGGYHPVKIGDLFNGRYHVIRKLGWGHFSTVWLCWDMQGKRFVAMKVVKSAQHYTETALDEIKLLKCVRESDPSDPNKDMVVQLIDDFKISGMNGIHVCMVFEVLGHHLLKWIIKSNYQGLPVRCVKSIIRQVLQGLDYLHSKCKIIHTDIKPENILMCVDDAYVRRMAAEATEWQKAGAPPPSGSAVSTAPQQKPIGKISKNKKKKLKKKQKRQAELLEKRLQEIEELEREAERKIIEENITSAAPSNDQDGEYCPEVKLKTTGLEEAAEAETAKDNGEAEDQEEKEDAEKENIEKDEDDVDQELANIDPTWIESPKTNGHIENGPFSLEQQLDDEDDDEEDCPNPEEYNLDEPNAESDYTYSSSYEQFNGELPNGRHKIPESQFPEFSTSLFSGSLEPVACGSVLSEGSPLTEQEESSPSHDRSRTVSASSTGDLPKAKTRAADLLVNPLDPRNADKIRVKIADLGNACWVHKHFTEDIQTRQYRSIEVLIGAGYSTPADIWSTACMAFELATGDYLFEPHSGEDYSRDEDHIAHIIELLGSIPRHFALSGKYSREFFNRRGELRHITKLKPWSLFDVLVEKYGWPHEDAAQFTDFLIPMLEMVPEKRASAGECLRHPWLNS

For the molecule `Oc1ccc(C2=Cc3ccc(O)cc3OC2)cc1` [compound 1, idronoxil], the remaining binding at 10 µM in assay [1] was found to be 86%; in [2], 8.3%; in assay [3], 92%; in assay [4], 95%; in assay [5] it was 12%; in [6], 81%. Also, the remaining binding at 10 µM in [7] was found to be 89%; in assay [8] it was 34%; in [9], 36%; in assay [10], 97%; in assay [11], 74%; in [12], 92%. In addition, the remaining binding at 10 µM worked out at 84% in assay [13]; 99% in assay [14]; 59% in assay [15]; 100% in assay [16]; 98% in [17]; 92% in assay [18]. Besides, the remaining binding at 10 µM turned out to be 97% in assay [19] and 61% in [20].

These data come from PMC10507085, “Pharmacological inhibition of TBK1/IKKε blunts immunopathology in a murine model of SARS-CoV-2 infection” (Nature Communications, 2023).
